Measurements as given in PMC6704710, “Preclinical evaluation of 3D185, a novel potent inhibitor of FGFR1/2/3 and CSF-1R, in FGFR-dependent and macrophage-dominant cancer models” (Journal of Experimental & Clinical Cancer Research : CR, 2019).
pIC50: −log10 of the molar value.

How the values were obtained:
Assay in all cases: Eurofins kinase panel
Format in all cases: biochemical
[1] = molecular target: T1, CaMKIγ(h) (Homo sapiens, UniProt Q96NX5); conditions: read-out: Inhibition rate (%)
T1 construct: purchased Eurofins (KinaseProfiler)

[2] = molecular target: T2, EphB4(h) (Homo sapiens, UniProt P54760); conditions: read-out: Inhibition rate (%)
T2 construct: purchased Eurofins (KinaseProfiler)
T2 sequence (P54760 16-987): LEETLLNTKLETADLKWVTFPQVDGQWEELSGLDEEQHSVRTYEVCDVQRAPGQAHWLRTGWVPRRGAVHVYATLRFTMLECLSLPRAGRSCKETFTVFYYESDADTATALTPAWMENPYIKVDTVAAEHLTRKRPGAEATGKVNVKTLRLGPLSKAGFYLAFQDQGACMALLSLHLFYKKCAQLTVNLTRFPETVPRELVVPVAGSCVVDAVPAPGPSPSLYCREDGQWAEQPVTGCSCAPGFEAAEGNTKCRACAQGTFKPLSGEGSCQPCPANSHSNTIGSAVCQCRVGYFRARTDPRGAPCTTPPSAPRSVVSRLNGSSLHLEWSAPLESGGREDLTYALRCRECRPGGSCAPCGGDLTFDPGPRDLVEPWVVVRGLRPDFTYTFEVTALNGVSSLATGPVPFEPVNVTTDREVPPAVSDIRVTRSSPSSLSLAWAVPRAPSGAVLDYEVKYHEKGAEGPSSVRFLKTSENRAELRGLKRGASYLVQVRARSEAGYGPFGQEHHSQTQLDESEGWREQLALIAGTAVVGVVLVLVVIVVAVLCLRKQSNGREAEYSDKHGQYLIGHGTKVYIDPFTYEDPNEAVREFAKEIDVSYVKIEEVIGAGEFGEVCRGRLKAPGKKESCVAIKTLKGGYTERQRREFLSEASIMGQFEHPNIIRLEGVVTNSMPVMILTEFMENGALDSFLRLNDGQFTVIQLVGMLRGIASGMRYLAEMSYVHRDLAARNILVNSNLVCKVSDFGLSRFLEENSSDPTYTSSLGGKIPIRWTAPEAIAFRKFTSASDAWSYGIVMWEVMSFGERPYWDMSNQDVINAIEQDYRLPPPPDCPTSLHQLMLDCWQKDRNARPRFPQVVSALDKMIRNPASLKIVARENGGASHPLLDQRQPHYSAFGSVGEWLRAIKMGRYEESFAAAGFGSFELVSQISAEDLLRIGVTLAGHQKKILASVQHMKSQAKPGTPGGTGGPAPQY

[3] = molecular target: FGFR2(h) (Homo sapiens, UniProt P21802)
[4] = molecular target: T3, Met(h) (Homo sapiens, UniProt P08581); conditions: read-out: Inhibition rate (%)
T3 construct: purchased Eurofins (KinaseProfiler)

[5] = molecular target: T4, NEK2(h) (Homo sapiens, UniProt P51955); conditions: read-out: Inhibition rate (%)
T4 construct: purchased Eurofins (KinaseProfiler)
T4 sequence (P51955 1-445): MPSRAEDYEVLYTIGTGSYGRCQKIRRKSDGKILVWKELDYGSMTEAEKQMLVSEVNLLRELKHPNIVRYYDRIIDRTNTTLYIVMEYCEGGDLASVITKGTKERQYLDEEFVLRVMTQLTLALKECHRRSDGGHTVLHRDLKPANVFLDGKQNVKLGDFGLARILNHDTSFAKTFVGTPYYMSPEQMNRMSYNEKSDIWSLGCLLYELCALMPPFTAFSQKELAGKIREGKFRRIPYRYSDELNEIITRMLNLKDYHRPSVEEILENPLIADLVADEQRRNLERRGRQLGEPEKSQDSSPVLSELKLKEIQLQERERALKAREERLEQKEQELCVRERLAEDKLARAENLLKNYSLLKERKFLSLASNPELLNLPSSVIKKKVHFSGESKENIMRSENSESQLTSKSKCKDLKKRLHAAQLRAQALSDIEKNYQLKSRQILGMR

[6] = molecular target: T5, Pim-3(h) (Homo sapiens, UniProt Q86V86); conditions: read-out: Inhibition rate (%)
T5 construct: purchased Eurofins (KinaseProfiler)

[7] = molecular target: T6, Rsk2(h) (Homo sapiens, UniProt P51812); conditions: read-out: Inhibition rate (%)
T6 construct: purchased Eurofins (KinaseProfiler)

[8] = molecular target: T7, STK32C(h) (Homo sapiens, UniProt Q86UX6); conditions: read-out: Inhibition rate (%)
T7 construct: purchased Eurofins (KinaseProfiler)

[9] = molecular target: T8, TAF1L(h) (Homo sapiens, UniProt Q8IZX4); conditions: read-out: Inhibition rate (%)
T8 construct: purchased Eurofins (KinaseProfiler)

[10] = molecular target: T9, TRB2(h) (Homo sapiens, UniProt Q92519); conditions: read-out: Inhibition rate (%)
T9 construct: purchased Eurofins (KinaseProfiler)
T9 sequence (Q92519 1-343): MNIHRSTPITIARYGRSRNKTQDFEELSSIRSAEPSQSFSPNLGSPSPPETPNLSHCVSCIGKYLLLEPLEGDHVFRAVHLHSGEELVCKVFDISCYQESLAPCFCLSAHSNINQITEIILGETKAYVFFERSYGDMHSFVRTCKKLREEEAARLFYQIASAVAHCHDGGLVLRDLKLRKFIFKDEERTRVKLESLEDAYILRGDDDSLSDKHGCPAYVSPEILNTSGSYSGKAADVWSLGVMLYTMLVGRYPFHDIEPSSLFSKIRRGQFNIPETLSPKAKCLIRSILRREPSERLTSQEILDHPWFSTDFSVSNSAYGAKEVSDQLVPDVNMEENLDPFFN

T7 sequence (Q86UX6 whole entry): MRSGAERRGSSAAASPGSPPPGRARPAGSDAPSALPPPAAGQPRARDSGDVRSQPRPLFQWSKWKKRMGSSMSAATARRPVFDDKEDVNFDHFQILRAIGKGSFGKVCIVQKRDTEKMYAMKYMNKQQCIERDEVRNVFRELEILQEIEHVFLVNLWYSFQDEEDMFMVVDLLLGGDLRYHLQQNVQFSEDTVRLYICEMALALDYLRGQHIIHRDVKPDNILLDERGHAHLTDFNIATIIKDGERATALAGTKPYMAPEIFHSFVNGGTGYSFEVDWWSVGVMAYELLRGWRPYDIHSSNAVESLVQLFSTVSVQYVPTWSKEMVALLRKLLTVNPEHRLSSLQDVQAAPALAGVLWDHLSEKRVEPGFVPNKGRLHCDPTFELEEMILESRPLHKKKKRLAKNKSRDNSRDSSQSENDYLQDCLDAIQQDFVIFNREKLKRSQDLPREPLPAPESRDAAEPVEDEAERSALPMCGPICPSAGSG
T3 sequence (P08581 25-1390): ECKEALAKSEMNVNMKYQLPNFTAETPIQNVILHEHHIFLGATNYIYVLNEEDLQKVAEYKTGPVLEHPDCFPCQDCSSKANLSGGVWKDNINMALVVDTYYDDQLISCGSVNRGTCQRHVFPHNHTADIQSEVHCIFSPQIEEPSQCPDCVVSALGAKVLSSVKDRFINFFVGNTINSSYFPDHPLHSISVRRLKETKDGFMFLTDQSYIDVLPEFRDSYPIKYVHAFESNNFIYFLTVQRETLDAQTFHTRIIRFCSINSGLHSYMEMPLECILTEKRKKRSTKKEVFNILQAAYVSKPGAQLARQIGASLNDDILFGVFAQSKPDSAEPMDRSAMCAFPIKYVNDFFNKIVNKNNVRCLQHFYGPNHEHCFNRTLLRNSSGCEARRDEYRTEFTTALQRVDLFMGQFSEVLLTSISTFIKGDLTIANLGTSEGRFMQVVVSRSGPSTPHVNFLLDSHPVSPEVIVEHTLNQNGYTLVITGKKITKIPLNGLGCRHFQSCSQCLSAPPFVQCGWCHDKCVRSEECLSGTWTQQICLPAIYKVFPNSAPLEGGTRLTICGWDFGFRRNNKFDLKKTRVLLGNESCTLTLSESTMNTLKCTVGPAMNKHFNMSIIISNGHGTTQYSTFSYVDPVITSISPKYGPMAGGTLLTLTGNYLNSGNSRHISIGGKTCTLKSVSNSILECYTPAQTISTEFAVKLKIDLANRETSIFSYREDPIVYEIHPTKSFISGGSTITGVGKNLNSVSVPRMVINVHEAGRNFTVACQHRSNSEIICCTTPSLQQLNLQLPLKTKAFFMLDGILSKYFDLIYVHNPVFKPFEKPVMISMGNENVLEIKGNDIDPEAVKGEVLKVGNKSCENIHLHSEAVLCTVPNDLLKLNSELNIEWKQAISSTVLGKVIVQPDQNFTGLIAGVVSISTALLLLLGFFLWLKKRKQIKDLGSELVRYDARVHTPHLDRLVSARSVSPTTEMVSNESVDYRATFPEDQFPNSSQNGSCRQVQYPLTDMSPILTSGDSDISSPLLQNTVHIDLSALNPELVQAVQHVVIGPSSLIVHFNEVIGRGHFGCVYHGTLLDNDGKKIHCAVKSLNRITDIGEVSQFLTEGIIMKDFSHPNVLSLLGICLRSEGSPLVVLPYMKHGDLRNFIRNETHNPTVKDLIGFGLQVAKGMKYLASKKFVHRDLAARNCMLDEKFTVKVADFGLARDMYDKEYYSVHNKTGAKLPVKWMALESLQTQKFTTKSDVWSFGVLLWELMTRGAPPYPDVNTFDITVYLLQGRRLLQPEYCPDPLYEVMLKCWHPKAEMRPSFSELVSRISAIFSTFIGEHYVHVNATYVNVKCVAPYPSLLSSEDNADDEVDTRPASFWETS
FGFR2(h), sequence (P21802 22-821): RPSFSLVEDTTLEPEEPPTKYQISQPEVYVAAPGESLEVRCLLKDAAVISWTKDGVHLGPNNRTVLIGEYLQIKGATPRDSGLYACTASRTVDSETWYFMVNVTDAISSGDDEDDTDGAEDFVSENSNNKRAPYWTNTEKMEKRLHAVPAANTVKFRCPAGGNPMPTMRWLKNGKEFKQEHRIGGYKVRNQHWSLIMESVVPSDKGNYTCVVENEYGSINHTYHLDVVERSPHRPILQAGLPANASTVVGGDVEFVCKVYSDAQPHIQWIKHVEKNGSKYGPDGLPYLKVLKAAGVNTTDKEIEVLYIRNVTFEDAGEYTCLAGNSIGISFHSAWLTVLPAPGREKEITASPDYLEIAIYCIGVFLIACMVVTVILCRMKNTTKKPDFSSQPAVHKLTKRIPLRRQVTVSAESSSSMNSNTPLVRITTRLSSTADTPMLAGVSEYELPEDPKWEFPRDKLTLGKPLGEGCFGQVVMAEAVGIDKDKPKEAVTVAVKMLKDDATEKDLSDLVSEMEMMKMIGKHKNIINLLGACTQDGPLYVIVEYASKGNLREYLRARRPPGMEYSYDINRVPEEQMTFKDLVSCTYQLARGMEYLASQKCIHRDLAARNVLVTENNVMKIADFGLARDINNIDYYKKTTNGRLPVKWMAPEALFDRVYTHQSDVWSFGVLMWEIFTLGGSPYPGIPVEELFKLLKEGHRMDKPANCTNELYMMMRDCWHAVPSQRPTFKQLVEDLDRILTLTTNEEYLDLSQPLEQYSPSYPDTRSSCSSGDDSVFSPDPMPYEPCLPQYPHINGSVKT
T1 sequence (Q96NX5 whole entry): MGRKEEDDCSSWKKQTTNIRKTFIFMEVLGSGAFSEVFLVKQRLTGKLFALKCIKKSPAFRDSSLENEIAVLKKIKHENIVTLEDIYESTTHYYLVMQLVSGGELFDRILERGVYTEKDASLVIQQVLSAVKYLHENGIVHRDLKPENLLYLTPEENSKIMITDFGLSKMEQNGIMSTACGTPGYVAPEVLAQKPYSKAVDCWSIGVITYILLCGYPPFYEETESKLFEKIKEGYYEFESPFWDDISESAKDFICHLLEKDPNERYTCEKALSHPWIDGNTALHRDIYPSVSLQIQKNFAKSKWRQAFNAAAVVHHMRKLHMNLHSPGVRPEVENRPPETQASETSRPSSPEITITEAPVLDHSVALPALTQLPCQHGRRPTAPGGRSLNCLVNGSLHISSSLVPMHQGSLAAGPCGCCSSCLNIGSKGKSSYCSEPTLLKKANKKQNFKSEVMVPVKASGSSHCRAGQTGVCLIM
T6 sequence (P51812 whole entry): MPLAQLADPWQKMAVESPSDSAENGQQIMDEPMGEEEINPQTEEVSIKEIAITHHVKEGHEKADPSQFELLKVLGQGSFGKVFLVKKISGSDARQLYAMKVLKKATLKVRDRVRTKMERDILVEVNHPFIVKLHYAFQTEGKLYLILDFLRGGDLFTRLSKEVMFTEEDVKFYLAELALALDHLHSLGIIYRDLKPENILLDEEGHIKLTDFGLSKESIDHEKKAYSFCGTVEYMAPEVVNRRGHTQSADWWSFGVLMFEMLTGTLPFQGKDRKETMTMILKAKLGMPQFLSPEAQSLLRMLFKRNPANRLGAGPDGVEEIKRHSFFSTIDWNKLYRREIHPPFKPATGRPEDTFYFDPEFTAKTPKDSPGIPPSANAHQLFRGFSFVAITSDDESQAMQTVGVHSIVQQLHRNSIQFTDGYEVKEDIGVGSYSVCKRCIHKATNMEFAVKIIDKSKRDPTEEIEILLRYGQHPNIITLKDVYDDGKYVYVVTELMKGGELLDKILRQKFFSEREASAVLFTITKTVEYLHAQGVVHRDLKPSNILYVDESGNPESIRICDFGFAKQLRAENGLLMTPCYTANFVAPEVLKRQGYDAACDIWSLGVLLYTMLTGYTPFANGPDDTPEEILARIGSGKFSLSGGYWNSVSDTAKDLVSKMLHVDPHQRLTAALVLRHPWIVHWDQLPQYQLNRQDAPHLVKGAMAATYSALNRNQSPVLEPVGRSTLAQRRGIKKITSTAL

COc1cc(OC)c(Cl)c(-c2ccc3c(NC(=O)c4ccc(N5CCNC(C)(C)C5)cc4)n[nH]c3n2)c1Cl [3D185]
inhibition at 0.01 µM ([1]; 10 nM): -1%
inhibition at 0.1 µM ([1]; 100 nM): 3%
inhibition at 1 µM ([1]; 1000 nM): 41%
inhibition at 0.01 µM ([2]; 10 nM): 8%
inhibition at 0.1 µM ([2]; 100 nM): -5%
inhibition at 1 µM ([2]; 1000 nM): 2%
pIC50 ([3]; estimated from 372-kinase panel): > 8.00
inhibition at 0.01 µM ([3]; read-out: Inhibition rate (%)): 93%
inhibition at 0.1 µM ([3]; read-out: Inhibition rate (%)): 98%
inhibition at 1 µM ([3]; read-out: Inhibition rate (%)): 100%
inhibition at 0.01 µM ([4]; 10 nM): 16%
inhibition at 0.1 µM ([4]; 100 nM): 15%
inhibition at 1 µM ([4]; 1000 nM): 55%
inhibition at 0.01 µM ([5]; 10 nM): 15%
inhibition at 0.1 µM ([5]; 100 nM): 67%
inhibition at 1 µM ([5]; 1000 nM): 94%
inhibition at 0.01 µM ([6]; 10 nM): -5%
inhibition at 0.1 µM ([6]; 100 nM): -11%
inhibition at 1 µM ([6]; 1000 nM): -1%
inhibition at 0.01 µM ([7]; 10 nM): -19%
inhibition at 0.1 µM ([7]; 100 nM): 0%
inhibition at 1 µM ([7]; 1000 nM): 24%
inhibition at 0.01 µM ([8]; 10 nM): 11%
inhibition at 0.1 µM ([8]; 100 nM): 8%
inhibition at 1 µM ([8]; 1000 nM): 7%
inhibition at 0.01 µM ([9]; 10 nM): -4%
inhibition at 0.1 µM ([9]; 100 nM): -9%
inhibition at 1 µM ([9]; 1000 nM): -9%
inhibition at 0.01 µM ([10]; 10 nM): -3%
inhibition at 0.1 µM ([10]; 100 nM): -7%
inhibition at 1 µM ([10]; 1000 nM): -4%
